Data from US8247211B2, “Glycopeptide antibiotics” (American Cyanamid Company, priority 2001, dated 2012).
Converted amounts (≈) assume the structure as drawn.

Columns and labels:
Escherichia coli = assay: In vitro antibacterial evaluation: minimum inhibitory concentration (MIC), broth dilution method; assay type: cell-based; conditions: strain GC 4560
In short: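 Inoculum: 5×10^5 CFU/mL. Range: 64-0.06 μg/mL. Medium: Muller-Hinton II […]; NCCLS M7-A2 broth dilution. Endpoint: lowest concentration inhibiting growth. Strains include methicillin-, penicillin- and/or vancomycin-resistant clinical isolates.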

Staphylococcus sp. = assay: as above; assay type: cell-based; conditions: broth dilution, 18 hours at 35° C.
In short: (§1)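 Using Muller-Hinton II […] and an inoculum of 5×10^5 CFU/mL, antibiotic dilutions from 64 down to 0.06 μg/mL were tested following NCCLS M7-A2. The MIC is the lowest concentration inhibiting growth, including in methicillin-, penicillin- or vancomycin-resistant clinical isolates.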

Streptococcus sp. = assay: as above; assay type: cell-based
In short: as §1

Enterococcus sp. = assay: as above; assay type: cell-based
In short: as §1

[1] = test system: Staphylococcus aureus-SMITH (GC 4543); assay: Acute lethal infection in mice (ED50); assay type: in vivo; conditions: female CD-1 mice, intraperitoneal challenge, intravenous dose 30 min. after infection, 7 day survival ratios
In short: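 IP bacterial challenge, female CD-1 mice; inoculum lethal to untreated controls in 24-48 hr. IV dosing in saline or 5% dextrose 30 min post-infection, 5 mice/dose. ED50 from 7-day survival, 3 tests pooled.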

[2] = Anatomic pathology (heart and kidney histopathology) in mice; assay type: in vivo, CD-1 mice; conditions: 20 mg/kg intravenously daily for 9 days, microscopic histopathology on day 10
Description: 20-day-old CD-1 mice were divided into a vehicle control group (5 mice) and a treatment group (5 mice). Samples of glycopeptide antibiotics were administered at 20 mg/kg intravenously daily for 9 days.
Samples of tissues from necropsied mice were formalin-fixed, paraffin-embedded, sectioned, stained with hematoxylin and eosin, and examined microscopically. Histopathologic findings were recorded. These findings were subjectively graded on a scale corresponding to slight, mild, moderate, marked and severe as compared to untreated controls.

CC(c1ccccc1)C1NC(=O)CNC(=O)C(CO)NC(=O)C(C(O)C2CN(Cc3ccc(C(C)(C)C)cc3)C(=N)N2C2OC(CO)C(O)C(O)C2O)NC(=O)C(C(O)C2CNC(=N)N2)NC(=O)C(Cc2ccc(OC3OC(CO)C(OC4OC5COC6(OC5C(O)C4O)C4CC5CC(C4)CC6C5)C(O)C3O)cc2)NC1=O (stereo not drawn) [Example 77]
MIC Escherichia coli (GC 4560) (Escherichia coli): 4 µg/mL (≈ 2.54 µM) | MIC Coagulase Negative Staphylococcus (GC 4547) (Staphylococcus sp.): 4 µg/mL (≈ 2.54 µM) | MIC Coagulase Negative Staphylococcus (GC 4548) (Staphylococcus sp.): 4 µg/mL (≈ 2.54 µM) | MIC Coagulase Negative Staphylococcus (GC 4549) (Staphylococcus sp.): 4 to 8 µg/mL | MIC Coagulase Negative Staphylococcus (GC 4551) (Staphylococcus sp.): 8 µg/mL (≈ 5.08 µM) | MIC Coagulase Negative Staphylococcus (GC 6257) (Staphylococcus sp.): 2 µg/mL (≈ 1.27 µM) | MIC Staphylococcus aureus (ATCC 29213) (Staphylococcus sp.): 8 to 16 µg/mL | MIC Staphylococcus aureus (GC 1131) (Staphylococcus sp.): 16 µg/mL (≈ 10.2 µM) | MIC Staphylococcus aureus (GC 3051) (Staphylococcus sp.): 8 to 16 µg/mL | MIC Staphylococcus aureus (GC 3053) (Staphylococcus sp.): 16 µg/mL (≈ 10.2 µM) | MIC Staphylococcus aureus (GC 4541) (Staphylococcus sp.): 4 to 8 µg/mL | MIC Staphylococcus aureus (GC 4542) (Staphylococcus sp.): 8 to 16 µg/mL | MIC Staphylococcus aureus (GC 4544) (Staphylococcus sp.): 16 µg/mL (≈ 10.2 µM) | MIC Staphylococcus aureus (GC 4545) (Staphylococcus sp.): 8 µg/mL (≈ 5.08 µM) | MIC Staphylococcus aureus SMITH (GC 4543) (Staphylococcus sp.): 8 µg/mL (≈ 5.08 µM) | MIC Staphylococcus haemolyticus (GC 4546) (Staphylococcus sp.): 4 to 8 µg/mL | MIC Staphylococcus aureus-SMITH (GC 4543) (Staphylococcus sp.; strain SMITH GC 4543): 8 µg/mL (≈ 5.08 µM) | MIC Streptococcus agalactiae (GC 4564) (Streptococcus sp.; Streptococcus agalactiae (GC 4564), broth dilution, 18 hours at 35° C.): 1 µg/mL (≈ 0.635 µM) | MIC Streptococcus pneumoniae (ATCC 6301) (Streptococcus sp.; Streptococcus pneumoniae (ATCC 6301), broth dilution, 18 hours at 35° C.): 2 µg/mL (≈ 1.27 µM) | MIC Streptococcus pneumoniae (GC 4565) (Streptococcus sp.; Streptococcus pneumoniae (GC 4565), broth dilution, 18 hours at 35° C.): 2 to 4 µg/mL | MIC Streptococcus pyogenes (GC 4563) (Streptococcus sp.; Streptococcus pyogenes (GC 4563), broth dilution, 18 hours at 35° C.): 1 µg/mL (≈ 0.635 µM) | MIC Streptococcus pneumoniae (ATCC 6301) (Streptococcus sp.; strain ATCC 6301): 2 µg/mL (≈ 1.27 µM) | MIC Streptococcus pyogenes (GC 4563) (Streptococcus sp.; strain GC 4563): 1 µg/mL (≈ 0.635 µM) | MIC Streptococcus agalactiae (GC 4564) (Streptococcus sp.; strain GC 4564): 1 µg/mL (≈ 0.635 µM) | MIC Streptococcus pneumoniae (GC 4565) (Streptococcus sp.; strain GC 4565): 2 to 4 µg/mL | MIC Enterococcus faecalis (GC 2242) (Enterococcus sp.; Enterococcus faecalis (GC 2242), broth dilution, 18 hours at 35° C.): 16 µg/mL (≈ 10.2 µM) | MIC Enterococcus faecalis (GC 2691) (Enterococcus sp.; Enterococcus faecalis (GC 2691), broth dilution, 18 hours at 35° C.): 16 µg/mL (≈ 10.2 µM) | MIC Enterococcus faecalis (GC 3059) (Enterococcus sp.; Enterococcus faecalis (GC 3059), broth dilution, 18 hours at 35° C.): 16 µg/mL (≈ 10.2 µM) | MIC Enterococcus faecalis (ATCC 29212) (Enterococcus sp.; strain ATCC 29212): 16 µg/mL (≈ 10.2 µM) | MIC Enterococcus faecalis (GC 2242) (Enterococcus sp.; strain GC 2242): 16 µg/mL (≈ 10.2 µM) | MIC Enterococcus faecium (GC 2243) (Enterococcus sp.; strain GC 2243): 8 µg/mL (≈ 5.08 µM) | MIC Enterococcus faecalis (GC 2691) (Enterococcus sp.; strain GC 2691): 16 µg/mL (≈ 10.2 µM) | MIC Enterococcus faecalis (GC 3059) (Enterococcus sp.; strain GC 3059): 16 µg/mL (≈ 10.2 µM) | MIC Enterococcus faecalis (GC 4552) (Enterococcus sp.; strain GC 4552): 16 µg/mL (≈ 10.2 µM) | MIC Enterococcus faecalis (GC 4553) (Enterococcus sp.; strain GC 4553): 8 µg/mL (≈ 5.08 µM) | MIC Enterococcus faecium (GC 4556) (Enterococcus sp.; strain GC 4556): 16 µg/mL (≈ 10.2 µM) | MIC Enterococcus faecium (GC 4557) (Enterococcus sp.; strain GC 4557): 1 to 2 µg/mL | MIC Enterococcus avium (GC 4558) (Enterococcus sp.; strain GC 4558): 4 µg/mL (≈ 2.54 µM) | MIC Enterococcus faecalis (GC 6189) (Enterococcus sp.; strain GC 6189): 16 µg/mL (≈ 10.2 µM) | median effective dose (ED50), Staphylococcus aureus-SMITH (GC 4543) [1]: 4 mg/kg | Anatomical Pathology (Day 10), Heart [2]: 0 | Anatomical Pathology (Day 10), Kidney [2]: 0
